Series [1] relates to Staphylococcus aureus. Briefly: Antibacterial activity against Staphylococcus aureus NCTC 4163 after 18 hrs by CLSI disc diffusion method. The format is functional. As to conditions: NCTC 4163, 18 h.
Series [2] deals with Staphylococcus aureus. Briefly: Antibacterial activity against Staphylococcus aureus ATCC 25923 after 18 hrs by CLSI disc diffusion method. The conditions noted are these: ATCC 25923, 18 h. The format is functional. (In general: Agar diffusion results depend on both activity and mobility in agar.)
Series [3] deals with Staphylococcus aureus. Briefly: Antibacterial activity against Staphylococcus aureus ATCC 6538 after 18 hrs by CLSI disc diffusion method. In kind it is functional. The conditions noted are these: ATCC 6538, 18 h.
In series [4] the test system is Staphylococcus epidermidis. Briefly: Antibacterial activity against Staphylococcus epidermidis ATCC 12228 after 18 hrs by CLSI disc diffusion method. The format is functional. The conditions noted are these: ATCC 12228, 18 h.
Series [5] relates to Staphylococcus epidermidis. As to the kind of experiment: Antibacterial activity against Staphylococcus epidermidis ATCC 35984 after 18 hrs by CLSI […] method. The format is functional. The conditions noted are these: ATCC 35984, 18 h.
For series [6], the system named is Bacillus spizizenii. As to the kind of experiment: Antibacterial activity against Bacillus subtilis ATCC 6633 after 18 hrs by CLSI disc diffusion method. In kind it is functional. As to conditions: ATCC 6633, 18 h.
Series [7] has as its system Bacillus cereus. Briefly: Antibacterial activity against Bacillus cereus ATCC 11778 after 18 hrs by CLSI disc diffusion method. The conditions noted are these: ATCC 11778, 18 h. The format is functional.
Series [8] concerns Enterococcus hirae. As to the kind of experiment: Antibacterial activity against Enterococcus hirae ATCC 10541 after 18 hrs by CLSI disc diffusion method. In kind it is functional. As to conditions: ATCC 10541, 18 h.
Series [9] concerns Enterococcus faecalis. As to the kind of experiment: Antibacterial activity against Enterococcus faecalis ATCC 29212 after 18 hrs by CLSI disc diffusion method. As to conditions: ATCC 29212, 18 h. The format is functional.
The test system of series [10] is Micrococcus luteus. Briefly: Antibacterial activity against Micrococcus luteus ATCC 10240 after 18 hrs by CLSI disc diffusion method. The format is functional. As to conditions: ATCC 10240, 18 h.
The subject of series [11] is Micrococcus luteus. Briefly: Antibacterial activity against Micrococcus luteus ATCC 9341 after 18 hrs by CLSI disc diffusion method. In kind it is functional. The conditions noted are these: ATCC 9341, 18 h.
The subject of series [12] is Escherichia coli. Briefly: Antibacterial activity against Escherichia coli ATCC 10538 after 18 hrs by CLSI disc diffusion method. In kind it is functional. As to conditions: ATCC 10538, 18 h.
The subject of series [13] is Proteus vulgaris. Briefly: Antibacterial activity against Proteus vulgaris NCTC 4635 after 18 hrs by CLSI disc diffusion method. The format is functional. The conditions noted are these: NCTC 4635, 18 h.
The test system of series [14] is Pseudomonas aeruginosa. As to the kind of experiment: Antibacterial activity against Pseudomonas aeruginosa ATCC 15442 after 18 hrs by CLSI disc diffusion method. The format is functional. The conditions noted are these: ATCC 15442, 18 h.
For series [15], the system named is Pseudomonas aeruginosa. Briefly: Antibacterial activity against Pseudomonas aeruginosa ATCC 27853 after 18 hrs by CLSI disc diffusion method. The format is functional. The conditions noted are these: ATCC 27853, 18 h.
In series [16] the test system is Bordetella bronchiseptica. Briefly: Antibacterial activity against Bordetella bronchiseptica ATCC 4617 after 18 hrs by CLSI disc diffusion method. In kind it is functional. The conditions noted are these: ATCC 4617, 18 h.
The test system of series [17] is A549. Briefly: Cytotoxicity activity against human A549 cells assessed as reduction in cell viability after 72 hrs by MTT assay. In kind it is cell-based. As to conditions: A549, 72 h. (In general: Formazan colour is commonly taken as a measure of viable cells.)
Series [18] relates to HaCaT. Briefly: Cytotoxicity activity against human HaCaT cells assessed as reduction in cell viability after 72 hrs by MTT assay. In kind it is cell-based.
Series [19] can be described thus: Selectivity index, ratio of IC50 for human HaCaT cells to MIC for Staphylococcus aureus NCTC 4163. In kind it is toxicity. The conditions noted are these: read-out: Selectivity Index.
Series [20] in a line: Selectivity index, ratio of IC50 for human HaCaT cells to MIC for Bacillus subtilis ATCC 6633. As to conditions: read-out: Selectivity Index. The format is toxicity.
Series [21] can be described thus: Selectivity index, ratio of IC50 for human HaCaT cells to MIC for Enterococcus hirae ATCC 10541. In kind it is toxicity. As to conditions: read-out: Selectivity Index.
Series [22] can be described thus: Selectivity index, ratio of IC50 for human HaCaT cells to MIC for Micrococcus luteus ATCC 10240. In kind it is toxicity. As to conditions: read-out: Selectivity Index.
Series [23] in a line: Selectivity index, ratio of IC50 for human HaCaT cells to MIC for Escherichia coli ATCC 10538. In kind it is toxicity. The conditions noted are these: read-out: Selectivity Index.
Series [24] can be described thus: Selectivity index, ratio of IC50 for human HaCaT cells to MIC for Proteus vulgaris NCTC 4635. The format is toxicity. As to conditions: read-out: Selectivity Index.
Series [25] can be described thus: Selectivity index, ratio of IC50 for human HaCaT cells to MIC for Bordetella bronchiseptica ATCC 4617. In kind it is toxicity. As to conditions: read-out: Selectivity Index.
Series [26] is described as follows: Inhibition of Staphylococcus aureus DNA topoisomerase 4 using Kinetoplast DNA as substrate after 30 mins by ethidium bromide staining based agarose gel electrophoresis method.

In brackets after ≈: the same amount, converted by molar mass.

With `Fc1ccc(-n2nnnc2Nn2cnnc2)cc1`, the MIC (as a rule, the smallest concentration in the dilution series that meets the test's criterion for growth inhibition) in series [1] came to 65 µM (≈ 16 µg/mL); in [2], 65 µM (≈ 16 µg/mL); in [3] it was 33 µM (≈ 8.12 µg/mL); in series [4], 33 µM (≈ 8.12 µg/mL); in series [5], 16 µM (≈ 3.94 µg/mL); in series [6], 65 µM (≈ 16 µg/mL). In addition, the minimum inhibitory concentration (MIC) in [7] was 65 µM (≈ 16 µg/mL); in series [8], 65 µM (≈ 16 µg/mL); in series [9], 8 µM (≈ 1.97 µg/mL); in [10], 2 µM (≈ 0.492 µg/mL); in series [11] it was 2 µM (≈ 0.492 µg/mL); in series [12], 16 µM (≈ 3.94 µg/mL). Besides, the minimum inhibitory concentration (MIC) in series [13] stood at 8 µM (≈ 1.97 µg/mL); in [14], 1040 µM (≈ 256 µg/mL); in series [15], 1040 µM (≈ 256 µg/mL); in series [16], 130 µM (≈ 32 µg/mL). Moreover, the IC50 (usually the concentration that inhibits the measured activity by half) in series [17] was 80 µM; in series [18] it was 84 µM. In addition, the selectivity ratio amounted to 1.29 in [19]; 1.29 in [20]; 2.89 in series [21]; 1.47 in series [22]; 1.47 in series [23]; 1.47 in [24]. In series [25], the selectivity ratio was 0.09.
In the case of `O=C(O)c1cn(C2CC2)c2cc(N3CCNCC3)c(F)cc2c1=O` [CIPROFLOXACIN], the half-inhibitory concentration (IC50) in series [26] stood at 1.7 µg/mL (≈ 5.13 µM).

The values above are taken from ChEMBL document CHEMBL4152339, “Design and synthesis of novel 1H-tetrazol-5-amine based potent antimicrobial agents: DNA topoisomerase IV and gyrase affinity evaluation supported by molecular docking studies” (Eur J Med Chem, 2018).
